Tests used:
Assay in all cases: relative IC50 (inflection point of fitted viability curve, relative to fitted max inhibition); higher = less sensitive
Settings in all cases: 72 h
KAI3 (IL-2 2.5 ng/mL) = test system: KAI3 (IL-2 2.5 ng/mL)
Method: (§1)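 Drug sensitivity and resistance testing: 5 concentrations over a 10,000-fold range, 72 h at 37 °C, viability by CellTiter-Glo normalised to DMSO and benzethonium chloride controls. IC50 is the inflection point of a logistic fit (min fixed at 0, max fitted), so it is relative to the fitted maximal inhibition. Kept only where fitted max inhibition is at least 50%.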

NKL (IL-2 2.5 ng/mL) = test system: NKL (IL-2 2.5 ng/mL)
Method: as §1

NK-92 (IL-2 2.5 ng/mL) = test system: NK-92 (IL-2 2.5 ng/mL)
Method: as §1

KHYG-1 (IL-2 2.5 ng/mL) = test system: KHYG-1 (IL-2 2.5 ng/mL)
Method: as §1

SNK-6 (IL-2 2.5 ng/mL) = test system: SNK-6 (IL-2 2.5 ng/mL)
Method: as §1

IMC-1 (IL-2 20 ng/mL) = test system: IMC-1 (IL-2 20 ng/mL)
Method: as §1

NK-YS (IL-2 2.5 ng/mL) = test system: NK-YS (IL-2 2.5 ng/mL)
Method: as §1

YT (IL-2 2.5 ng/mL) = test system: YT (IL-2 2.5 ng/mL)
Method: as §1

DERL-7 (IL-2 2.5 ng/mL) = test system: DERL-7 (IL-2 2.5 ng/mL)
Method: as §1

[1] = test system: normal primary NK cells, pool 1 (3 donors), resting (IL-2 0 ng/mL)
Method: as §1

SMILES	relative IC50 (KAI3 (IL-2 2.5 ng/mL)) [nM]	relative IC50 (NKL (IL-2 2.5 ng/mL)) [nM]	relative IC50 (NK-92 (IL-2 2.5 ng/mL)) [nM]	relative IC50 (KHYG-1 (IL-2 2.5 ng/mL)) [nM]	relative IC50 (SNK-6 (IL-2 2.5 ng/mL)) [nM]	relative IC50 (IMC-1 (IL-2 20 ng/mL)) [nM]	relative IC50 (NK-YS (IL-2 2.5 ng/mL)) [nM]	relative IC50 (YT (IL-2 2.5 ng/mL)) [nM]	relative IC50 (DERL-7 (IL-2 2.5 ng/mL)) [nM]	relative IC50 [1] [nM]
S=P(N1CC1)(N1CC1)N1CC1 [Thio-TEPA]	4010	4100	–	–	–	–	–	–	–	–
C#Cc1cccc(Nc2ncnc3cc4c(cc23)OCCOCCOCCO4)c1 [Icotinib]	–	–	1970	–	–	–	–	–	–	–
Cc1cc(C(=O)NOCCO)c(Nc2ccc(I)cc2F)n(C)c1=O [AZD-8330]	–	10.2	> 10000	13	> 10000	–	–	–	–	–
COc1cc2c(cc1O)CC[C@@H]1[C@@H]2CC[C@]2(C)[C@@H](O)CC[C@@H]12 [2-methoxyestradiol]	442	243	153	319	263	791	260	373	589	–
C=CC[C@@H]1/C=C(\C)C[C@H](C)C[C@H](OC)[C@H]2O[C@@](O)(C(=O)C(=O)N3CCCC[C@H]3C(=O)O[C@H](/C(C)=C/[C@@H]3CC[C@@H](O)[C@H](OC)C3)[C@H](C)[C@@H](O)CC1=O)[C@H](C)C[C@@H]2OC [Tacrolimus]	–	–	–	–	–	–	–	–	–	1620
Cn1cnc2c(F)c(Nc3ccc(Br)cc3Cl)c(C(=O)NOCCO)cc21 [Selumetinib]	–	436	–	606	> 10000	–	–	–	136	–
CCc1c2c(nc3ccc(OC(=O)N4CCC(N5CCCCC5)CC4)cc13)-c1cc3c(c(=O)n1C2)COC(=O)[C@]3(O)CC [Irinotecan]	146	73	140	152	260	347	282	577	597	–
COc1cc(Nc2ncc3c(n2)-c2ccc(Cl)cc2C(c2c(F)cccc2OC)=NC3)ccc1C(=O)O [Alisertib]	116	52.5	41.3	50.5	39.5	116	22	91.9	28.2	–
OC[C@H]1O[C@@H](n2cnc3c2N=CNC[C@H]3O)C[C@@H]1O [Pentostatin]	> 10000	> 10000	–	–	–	–	–	–	–	–
CC[C@]1(O)C[C@@H]2CN(CCc3c([nH]c4ccccc34)[C@@](C(=O)OC)(c3cc4c(cc3OC)N(C)[C@H]3[C@@](O)(C(=O)OC)[C@H](OC(C)=O)[C@]5(CC)C=CCN6CC[C@]43[C@@H]65)C2)C1 [Vinblastine]	9.24	3.72	7.82	3.44	5.22	3.57	6.11	4.62	3.3	–
O=S(=O)(c1cccc2c(O)nccc12)N1CCCNCC1 [Hydroxyfasudil]	–	–	–	–	9460	–	–	–	–	–
Oc1ncc(N(CCCl)CCCl)c(O)n1 [Uracil mustard]	–	–	–	–	> 10000	–	–	–	–	–
CCN1CCN(c2ccc(Nc3cc(N(C)C(=O)Nc4c(Cl)c(OC)cc(OC)c4Cl)ncn3)cc2)CC1 [NVP-BGJ398]	–	–	–	–	> 1000	–	–	–	–	–
O=C(O)c1ccc(Nc2ncc3c(n2)-c2ccc(Cl)cc2C(c2c(F)cccc2F)=NC3)cc1 [MLN-8054]	291	107	563	259	73.6	1540	125	190	763	–
O=C(Nc1cccc(Cl)c1)Nc1ncc(CCNc2ncnc3ccsc23)s1 [SNS-314]	–	–	61.3	12.4	10.5	201	37.9	–	28.1	–
CCc1nc(-c2cccc(C)c2)c(-c2ccnc(NC(=O)c3ccccc3)c2)s1 [TAK-715]	–	–	2170	–	3250	–	1570	–	–	–
COc1ncc(-c2ccc3nccc(-c4ccnnc4)c3c2)cc1NS(=O)(=O)c1ccc(F)cc1F [Omipalisib]	11.4	57.5	11.2	114	101	–	39.5	29	11.1	–
N#CC(c1ccnc(OCc2ccc(CN3CCOCC3)cc2)n1)c1nc2ccccc2s1 (configuration not stated) [Bentamapimod]	–	1810	–	1690	–	2230	–	1590	1440	–
CS(=O)(=O)CCNCc1ccc(-c2ccc3ncnc(Nc4ccc(OCc5cccc(F)c5)c(Cl)c4)c3c2)o1 [Lapatinib]	–	–	–	–	> 1000	–	–	–	–	–
O=C(c1ccc(F)c(F)c1Nc1ccc(I)cc1F)N1CC(O)([C@@H]2CCCCN2)C1 [Cobimetinib]	–	51.6	–	123	> 1000	–	–	–	–	–
Cn1c(=O)c(F)c(Nc2ccc(I)cc2F)c2c(=O)n(C[C@@H](O)CO)cnc21 [TAK-733]	–	12.6	–	22.5	–	–	–	–	–	–
COc1cc2c(Nc3ccc(Cl)c(Cl)c3F)ncnc2cc1OC[C@@H]1C[C@@H]2CN(C)C[C@@H]2C1 [XL-647]	–	133	183	–	–	–	–	–	–	157
CCCOc1ccn2c(C(C)=O)cc(-c3ccccc3S(C)(=O)=O)c2c1 [GSK2801]	–	–	–	–	–	> 10000	–	–	–	–
CN(C)c1nc(N(C)C)nc(N(C)C)n1 [Altretamine]	–	–	> 10000	> 10000	–	–	–	> 10000	–	–
CO[C@H]1C[C@@H]2CC[C@@H](C)[C@@](O)(O2)C(=O)C(=O)N2CCCC[C@H]2C(=O)O[C@H]([C@H](C)C[C@@H]2CC[C@@H](OC(=O)C(C)(CO)CO)[C@H](OC)C2)CC(=O)[C@H](C)/C=C(\C)[C@@H](O)[C@@H](OC)C(=O)[C@H](C)C[C@H](C)/C=C/C=C/C=C/1C [Temsirolimus]	0.5	0.09	–	1.32	0.26	–	0.31	0.61	0.57	–
CNC(=O)c1cccc2cc(Oc3ccnc4cc(OCC5(N)CC5)c(OC)cc34)ccc12 [Lucitanib]	–	–	1910	2000	3720	–	2000	3440	–	–
COc1cc(F)c(F)c(Nc2ccc(I)cc2F)c1NS(=O)(=O)C1(C[C@H](O)CO)CC1 [Refametinib]	–	91.9	–	147	–	–	–	–	194	–
CCN1CCN(Cc2ccc(-c3cc4c(N[C@H](C)c5ccccc5)ncnc4[nH]3)cc2)CC1 [NVP-AEE788]	–	–	374	–	–	–	–	–	–	–
O=C(O)c1ccc(O)c2ncccc12 [IOX-1]	17000	29100	26400	28400	20200	37400	32200	32700	21600	–
